# According to US20220249479A1, “MODIFIED RELEASE FORMULATION OF A PYRIMIDINYLAMINO-PYRAZOLE COMPOUND, AND METHODS OF TREATMENT” (DENALI THERAPEUTICS INC., priority 2019, published 2022):
# Experiment: Multiple-dose PK of API-in-capsule formulation BID for 10 days in healthy human subjects
# Type: in vivo
# Description: The mean CSF to unbound plasma ratio was about 1.0. Data shown is from 25, 80, and100 mg BID multiple dose cohorts.
# Formula I compound was administered to healthy young human subjects as an API-in- capsule formulation at doses of 25 mg, 40 mg, 80 mg and 100 mg BID, and to healthy elder subjects at 80 mg BID. Formula I compound concentrations were determined on Day 1 and 10 and at trough on selected day during the 10 days of administration. […] The terminal half-life, and plasma concentrations and pS935 inhibition at trough (minima) are consistent with twice-daily administration as an efficacious regimen.
# […] variability in the ratio was seen because of the parallel (non-crossover) nature of the study design. […] Physiologically-based PK modelling, was used to predict the Cmax/Cmin ratio for MUPS formulations contain various amounts of KOLLICOAT® polymer.
structure (smiles),measurement,setting,value
"CNc1nc(Nc2cn(C(C)(C)C#N)nc2C)ncc1C(F)(F)F [Formula I compound, 2-methyl-2-(3-methyl-4-(4-(methylamino)-5-(trifluoromethyl)pyrimidin-2-ylamino)-1H-pyrazol-1-yl)propanenitrile]",plasma Cmax and AUC versus dose,25 to 100 mg BID dose range,dose-proportional
same,Kp at 10 day,"human, CSF / unbound plasma, oral, healthy young and healthy elderly, Day 10, 25, 80 and 100 mg BID immediate release capsule, read-out: mean CSF to unbound plasma ratio",~1
same,half-life,"human, plasma, oral, postdose Day 10, 25-100 mg BID, read-out: terminal half-life in plasma",14 to 26 h
